Results as given in BindingDB's records for doi:10.1016/j.bmcl.2016.06.076 (Leiden University, 2016).
pIC50: −log10 of the molar value.

Molecular target: T1, Diacylglycerol lipase-alpha (Homo sapiens, UniProt Q9Y4D2)
T1 sequence (Q9Y4D2 whole entry): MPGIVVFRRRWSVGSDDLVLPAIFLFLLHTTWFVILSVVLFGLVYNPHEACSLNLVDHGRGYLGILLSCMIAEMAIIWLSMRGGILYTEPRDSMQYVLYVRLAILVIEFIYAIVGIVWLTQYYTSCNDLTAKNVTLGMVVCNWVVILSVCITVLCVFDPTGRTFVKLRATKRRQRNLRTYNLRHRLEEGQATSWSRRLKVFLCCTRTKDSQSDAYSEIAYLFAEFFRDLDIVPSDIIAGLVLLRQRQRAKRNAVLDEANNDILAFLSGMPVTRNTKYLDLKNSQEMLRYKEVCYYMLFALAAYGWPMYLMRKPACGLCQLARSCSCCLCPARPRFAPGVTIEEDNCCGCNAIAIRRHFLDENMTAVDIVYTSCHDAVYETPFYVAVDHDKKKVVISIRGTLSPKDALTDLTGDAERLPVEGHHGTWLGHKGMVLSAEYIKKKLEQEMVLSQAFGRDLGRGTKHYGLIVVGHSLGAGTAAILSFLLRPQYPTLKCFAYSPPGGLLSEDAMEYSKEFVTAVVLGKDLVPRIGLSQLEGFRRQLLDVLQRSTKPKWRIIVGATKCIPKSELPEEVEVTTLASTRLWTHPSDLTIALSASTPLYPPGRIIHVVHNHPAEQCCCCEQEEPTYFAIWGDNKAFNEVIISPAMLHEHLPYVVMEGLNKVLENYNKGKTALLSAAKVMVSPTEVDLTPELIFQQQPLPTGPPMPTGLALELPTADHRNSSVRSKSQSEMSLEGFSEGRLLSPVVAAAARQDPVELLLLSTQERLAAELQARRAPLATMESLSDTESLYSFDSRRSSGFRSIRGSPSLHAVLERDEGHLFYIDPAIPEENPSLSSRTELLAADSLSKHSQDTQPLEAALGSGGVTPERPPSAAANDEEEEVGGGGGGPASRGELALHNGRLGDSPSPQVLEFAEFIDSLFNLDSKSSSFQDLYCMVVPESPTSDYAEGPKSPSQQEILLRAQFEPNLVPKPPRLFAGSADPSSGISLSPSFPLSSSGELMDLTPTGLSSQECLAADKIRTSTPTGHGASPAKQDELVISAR
Experiment: Inhibition of human DAGLalpha expressed in HEK293T cell membrane fractions using PNP butyrate as substrate preincubated for 20 mins followed by substrate addition by colorimetric surrogate substrate assay

pIC50: 7.40
SMILES: O=C(CCCCCc1ccccc1)c1nc2ncccc2o1 [1-(oxazolo[4,5-b]pyridin-2-yl)-6-phenylhexan-1-one]
